This is an account of results in PMC12430443, “Discovery of Novel Benzamide-Based Sigma-1 Receptor Agonists with Enhanced Selectivity and Safety” (Molecules, 2025).

The target of series [1] is T1, S1R (Homo sapiens, UniProt Q99720).
T1 construct: For the S1R assay, Jurkat cell membranes (10–20 μg protein/tube) were incubated at 37 °C for 2 h; host or cells: Jurkat cell membranes
Nature of the series: S1R competitive radioligand binding, [3H](+)-pentazocine, Jurkat cell membranes. As to conditions: for IC50: [3H]-(+)-pentazocine displacement, n = 2; for Ki (S2R)/ Ki (S1R): selectivity ratio S2R/S1R. From the text: S1R and S2R affinities were classically evaluated through competitive binding assays using radioligands, following the protocol described by Ganapathy et al.. The selective radioligand [^3H] (+)-pentazocine was employed as the classic prototypical ligand, selectively binding to the orthosteric S1R-binding sites. […] Jurkat cell membranes served as the receptor source in both assays. The equilibrium dissociation constants (Ki) for S1R and S2R were derived from the IC50 values of each compound, and selectivity ratios (S2R/S1R) were subsequently calculated (Table 1, Figures S2 and S3).
Binding assays were performed by Eurofins Cerep (Poitiers, France) according to the protocol of Ganapathy. […] For the S2R assay, Jurkat cell membranes (10–20 μg protein/tube) were incubated at room temperature for 1 h in the same buffer with [^3H]-DTG (25 nM) in the presence of (+)-pentazocine (1 μM) to saturate S1R, along with a range of test compound concentrations. Bound radioactivity was quantified by liquid scintillation counting. Nonspecific binding was determined under identical conditions in the presence of 10 μM unlabeled haloperidol. The IC50 values (concentration causing a half-maximal inhibition of control-specific binding) and Hill coefficients (nH) were determined by non-linear regression analysis of the competition curves generated with mean replicate values using Hill equation curve-fitting. This analysis was performed using software developed at Cerep (Hill software) and validated by comparison with data generated by the commercial software SigmaPlot ®4.0 for Windows® (©1997 by SPSS Inc.). Inhibition constants (Ki) were calculated from IC50 values using the method of Cheng and Prusoff.

Series [2] deals with serotonin 5-HT2A receptor (Homo sapiens, UniProt P28223). The series can be described thus: Off-target panel, aequorin functional assay. It is filed as cell-based. As to conditions: 10 µM, duplicate; % inhibition of reference agonist activity. Here is the method:
Among the synthesized compounds, four derivatives were selected based on their affinity and selectivity profiles. […] The remaining compounds (2, 3, 6, and 7) were assessed for their agonist and antagonist activities across a panel of 58 receptors relevant to CNS disorders, including serotonin, adenosine, adrenergic, cannabinoid, dopamine, histamine, and muscarinic receptors. These assays were conducted at a concentration of 10 µM, in duplicate, utilizing aequorin [19], cAMP HTRF™ [20], and GTPγS binding assays, as detailed in Table 2. […] Specifically, compound 6 antagonized four receptors (5-HT2A, 5-HT2C, α1a, H1), while compound 7 was active against five receptors (5-HT2A, 5-HT3, α1a, H1, M1).
Rapidly, the tests were performed by Euroscreen (https://euroscreenfast.com/) with recombinant human G-coupled receptor-expressing cell lines using aequorin functional assays for serotonin 5-HT2A, 5-HT2B, 5-HT2C, 5-HT3, and 5-HT5A, adrenergic α1a and α1b, angiotensin AT1, cholesistokinin CCFK1, endothelin ETA, histamine H1, muscarinic M1 and M3, neurokinin NK1 and NK2, vasopressin V1a, and vasoactive intestinal peptide VPAC1 receptor analysis. Then, cAMP HTRF^TM assays were used to analyze serotonin 5-HT1A, 5-HT4E, 5-HT6, and 5-HT7, adenosine A1, A2A, and A3, adrenergic β1 and β2, cannabinoid CB1, dopamine D1, histamine H2, and neuropeptide Y NPY receptors. GTPγS^35 assays were used to analyze serotonin 5-HT1B, adrenergic α2a and α2b, dopamine D2, muscarinic M2 and M4, opioid δ, κ and µ, and somatostatine SST4 receptors.
Agonist and antagonist activities of the test compound are expressed as the percentage of the activity of the reference agonist at its EC100 concentration or the percentage of inhibition of the reference agonist activity at its EC80 concentration, respectively.
For the aequorin assays, different cell lines co-expressing the receptors were grown in specific culture media and incubated for 4 h with coelenterazine h. For agonist testing, cell suspensions were mixed with test or reference agonists in a 96-well plate. For antagonist testing, the reference agonist at its EC80 (final concentration) was injected to the mix the containing cells and the tested compound. The resulting emission of light was recorded using the Hamamatsu Functional Drug Screening System 6000 [19].

The nature of series [3]: Microsomal stability. It is filed as in vitro ADME. As to conditions: human, liver microsomes. As to the method:
Microsomal stability was evaluated using human liver microsomes at 10 µM (Table 3). […] Since cytochrome P450 (CYP) enzymes—especially families 1 to 3—play major roles in drug metabolism, CYP inhibition was tested against the human isoforms CYP1A, 2B6, 2C8, 2C9, 2C19, 2D6, and 3A, as recommended by FDA and EMA guidelines. […] Membrane transport proteins, including the ATP-binding cassette (ABC) and solute carrier (SLC) families, affect drug pharmacokinetics and potential drug–drug interactions. The inhibitory effects of compounds 2 and 6 were assessed against five ABC transporters (P-gp, BCRP, MRP1, MRP2, and MRP3) and seven SLC transporters (OAT1, OAT3, OATP1B1, OCT1, OCT2, ASBT, and NTCP).

Setting [4] is: n = 2, read-out: Human liver microsome intrinsic clearance.

Like-named read-outs stand apart in the source and are kept apart here.

T1 sequence (Q99720 whole entry): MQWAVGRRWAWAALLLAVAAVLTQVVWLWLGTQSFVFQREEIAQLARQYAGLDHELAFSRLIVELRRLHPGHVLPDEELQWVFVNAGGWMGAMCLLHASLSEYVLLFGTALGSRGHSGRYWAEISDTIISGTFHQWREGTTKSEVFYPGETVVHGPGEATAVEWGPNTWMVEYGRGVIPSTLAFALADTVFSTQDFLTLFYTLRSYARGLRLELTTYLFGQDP
Chain of serotonin 5-HT2A receptor (P28223 whole entry): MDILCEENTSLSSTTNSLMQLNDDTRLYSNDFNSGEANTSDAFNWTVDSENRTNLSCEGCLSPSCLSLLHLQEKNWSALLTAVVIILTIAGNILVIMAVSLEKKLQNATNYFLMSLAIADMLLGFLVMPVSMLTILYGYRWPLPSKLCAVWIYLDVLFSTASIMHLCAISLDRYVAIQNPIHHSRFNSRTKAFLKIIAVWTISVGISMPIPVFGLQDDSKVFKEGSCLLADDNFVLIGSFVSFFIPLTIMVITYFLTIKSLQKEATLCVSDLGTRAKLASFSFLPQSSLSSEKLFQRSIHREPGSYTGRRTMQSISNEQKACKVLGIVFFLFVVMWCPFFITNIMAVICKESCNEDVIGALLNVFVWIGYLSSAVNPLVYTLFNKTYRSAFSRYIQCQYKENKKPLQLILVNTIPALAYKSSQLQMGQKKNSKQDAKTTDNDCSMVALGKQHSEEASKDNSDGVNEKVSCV

In series [1] ([3H](+)-pentazocine, Jurkat cell membranes, mean of 2–3 independent experiments), `CN(CCC(=O)NCc1cccc(Cl)c1)Cc1ccccc1` [Compound 2, 3-(Benzylmethylamino)-N-(3-chlorobenzyl)propanamide] came in with an inhibitory constant (Ki) of 0.6 nM. Further, the IC50 in series [1] (Jurkat cell membranes) is 1.2 nM. Further, the “Ki (S2R)/ Ki (S1R)” value in series [1] turned out to be 317. Moreover, the “5-HT2A [b] antagonist activity” value in series [2] is 72%. Moreover, in series [3] (setting [4]), the microsomal CLint at 10 µM was 135 µL/min/mg.
In series [1] (Jurkat cell membranes), `CN(CCC(=O)NCc1ccc(C#N)cc1)Cc1ccccc1` [Compound 6, 3-(Benzylmethylamino)-N-(4-cyanobenzyl)propanamide] showed a concentration for half-maximal inhibition (IC50) of 11 nM. For the same compound, in series [1], the “Ki (S2R)/ Ki (S1R)” value is recorded as 331. Also, the “5-HT2A [b] antagonist activity” value in series [2] was “antagonized”. The half-life at 10 µM is more than 1 h in series [3] (as in running text, read-out: Human liver microsome half-life) and more than 1 h in series [3] (n = 2, read-out: Human liver microsome half-life t1/2). Also, the microsomal CLint at 10 µM in series [3] (setting [4]) was less than 116 µL/min/mg; in series [3] (read-out: Human liver microsome clearance) it was less than 115 µL/min/mg.
